Numbers after ± are expanded uncertainties.
Assay: xn = mol fraction of the nth substance listed
Conditions: 101 kPa, Liquid; for mass density: Vibrating tube method

CC(C)CCO [3-methylbutan-1-ol] + CCO
Conditions	kinematic viscosity, 308.15 K [m2/s]	kinematic viscosity, 313.15 K [m2/s]	kinematic viscosity, 318.15 K [m2/s]	kinematic viscosity, 323.15 K [m2/s]	mass density, 313.15 K [kg/m3]	mass density, 318.15 K [kg/m3]	mass density, 323.15 K [kg/m3]
x1 = 0.0268	–	–	–	–	773.2 ± 1	769 ± 1	764.6 ± 1
x1 = 0.0549	–	–	–	–	774.2 ± 1	770 ± 1	765.7 ± 1
x1 = 0.0845	–	–	–	–	775.2 ± 1	771 ± 1	766.7 ± 1
x1 = 0.0915	1.17e-06 ± 5.7e-08	1.07e-06 ± 5.2e-08	9.8e-07 ± 4.8e-08	8.72e-07 ± 4.4e-08	–	–	–
x1 = 0.1156	–	–	–	–	776.2 ± 1	772 ± 1	767.8 ± 1
x1 = 0.1484	–	–	–	–	777.2 ± 1	773.1 ± 1	768.9 ± 1
x1 = 0.1753	1.22e-06 ± 5.9e-08	1.12e-06 ± 5.4e-08	1.03e-06 ± 5.1e-08	9.13e-07 ± 4.6e-08	–	–	–
x1 = 0.183	–	–	–	–	778.2 ± 1	774.1 ± 1	769.9 ± 1
x1 = 0.2524	1.27e-06 ± 6.1e-08	1.17e-06 ± 5.7e-08	1.07e-06 ± 5.2e-08	9.53e-07 ± 4.7e-08	–	–	–
x1 = 0.2584	–	–	–	–	780.3 ± 1	776.3 ± 1	772.1 ± 1
x1 = 0.3235	1.33e-06 ± 6.4e-08	1.22e-06 ± 5.9e-08	1.12e-06 ± 5.4e-08	9.96e-07 ± 4.9e-08	–	–	–
x1 = 0.3433	–	–	–	–	782.4 ± 1	778.4 ± 1	774.3 ± 1
x1 = 0.3894	1.4e-06 ± 6.7e-08	1.28e-06 ± 6.1e-08	1.17e-06 ± 5.7e-08	1.05e-06 ± 5.1e-08	–	–	–
x1 = 0.4395	–	–	–	–	784.6 ± 1	780.6 ± 1	776.6 ± 1
x1 = 0.4505	1.47e-06 ± 7e-08	1.35e-06 ± 6.4e-08	1.23e-06 ± 5.9e-08	1.1e-06 ± 5.4e-08	–	–	–
x1 = 0.5495	–	–	–	–	786.7 ± 1	782.8 ± 1	778.9 ± 1
x1 = 0.5605	1.65e-06 ± 7.7e-08	1.51e-06 ± 7.1e-08	1.37e-06 ± 6.5e-08	1.23e-06 ± 5.9e-08	–	–	–
x1 = 0.6567	1.86e-06 ± 8.6e-08	1.69e-06 ± 7.9e-08	1.54e-06 ± 7.2e-08	1.39e-06 ± 6.6e-08	–	–	–
x1 = 0.6765	–	–	–	–	788.9 ± 1	785.1 ± 1	781.2 ± 1
x1 = 0.7416	2.1e-06 ± 9.6e-08	1.9e-06 ± 8.8e-08	1.72e-06 ± 8e-08	1.55e-06 ± 7.3e-08	–	–	–
x1 = 0.817	2.37e-06 ± 1.1e-07	2.13e-06 ± 9.8e-08	1.92e-06 ± 8.9e-08	1.72e-06 ± 8e-08	–	–	–
x1 = 0.8247	–	–	–	–	791 ± 1	787.3 ± 1	783.4 ± 1
x1 = 0.8844	2.66e-06 ± 1.2e-07	2.38e-06 ± 1.1e-07	2.13e-06 ± 9.8e-08	1.9e-06 ± 8.8e-08	–	–	–
x1 = 0.9451	2.98e-06 ± 1.3e-07	2.66e-06 ± 1.2e-07	2.36e-06 ± 1.1e-07	2.09e-06 ± 9.6e-08	–	–	–
x1 = 1	3.33e-06 ± 1.5e-07	2.94e-06 ± 1.3e-07	2.59e-06 ± 1.2e-07	2.29e-06 ± 1e-07	793.2 ± 1	789.5 ± 1	785.7 ± 1

From the NIST ThermoML archive (doi:10.1021/je050416y)
